{
  "source": "patent US4882322A",
  "about": "“3β,17β-hydroxy-substituted steroids and related steroidal compounds” (Merrell Dow Pharmaceuticals Inc., priority 1988, dated 1989)",
  "key": {"JAr Tumor Aromatase": {"biological_target": "T1, JAr Tumor Aromatase (Homo sapiens, UniProt P11511)", "T1 construct": "from 35 mg of tumor was the source for both aromatase; from tissue; host or cells: Tumor grown from subcutaneously injected human JAr choriocarcinoma cells in athymic nude mice; 800×g supernatant ('cytosol')", "T1 sequence (P11511 1-503)": "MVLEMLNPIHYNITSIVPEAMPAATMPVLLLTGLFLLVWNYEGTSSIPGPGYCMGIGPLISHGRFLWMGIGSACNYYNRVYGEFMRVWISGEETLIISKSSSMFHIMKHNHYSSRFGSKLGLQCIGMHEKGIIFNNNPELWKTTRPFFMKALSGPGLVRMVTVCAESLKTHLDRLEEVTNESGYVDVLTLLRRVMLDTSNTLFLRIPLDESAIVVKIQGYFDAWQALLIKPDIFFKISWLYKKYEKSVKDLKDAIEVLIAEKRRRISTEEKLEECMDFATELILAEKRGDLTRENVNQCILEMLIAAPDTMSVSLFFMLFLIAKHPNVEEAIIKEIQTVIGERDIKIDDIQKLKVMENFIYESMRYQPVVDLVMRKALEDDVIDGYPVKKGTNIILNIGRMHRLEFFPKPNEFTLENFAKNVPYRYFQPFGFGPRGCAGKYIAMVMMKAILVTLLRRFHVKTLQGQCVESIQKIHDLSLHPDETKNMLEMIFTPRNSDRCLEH", "test": "Time-dependent JAr tumor aromatase activity (in vitro inhibition; 3H2O release from 1-[3H]-androstenedione, cytosol of JAr tumor)", "type": "biochemical", "conditions": "for inhibition at 5 µM: Conc. 5 μM; for inhibition at 5 µM / inhibition at 25 µM: read-out: Relative Percent Inhibition; for inhibition at 25 µM: Conc. 25 μM", "experimental": "The aromatase inhibitory action of the compounds of the present invention may be determined using a radioenzymatic assay. An aromatase enzyme preparation is employed from the microsomal fraction isolated from human placenta. Stereospecific elimination of 1β and 2β tritium labels from androgen substrates such as testosterone or androstenedione, and the subsequent appearance of tritated water, is utilized to measure the rate of enzyme reaction during in vitro incubations.\nIn evaluating the inhibition of aromatase activity, the compounds of the present invention were tested according to the folowing procedure adapted from Johnston et al., J Steroid Biochem., Vol. 20, No. 6A, 1221 (1984) and Johnston, Steroids, Vol. 50, No. 1-3, 105 (1987). Athymic nude mice were subcutaneously injected with 1.5×10^6 human choriocarcinoma trophoblast (JAr) cells, which develop tumor masses of about 1 g in 10 days. Tumor aromatase activity was determined in vitro by measuring the ^3 H2 O resulting from the stereospecific release of 1-β ^3 H from 1-[^3 H]-androstenedione. Cytosol (800×g) from 35 mg of tumor was the source for both aromatase and 3β-steroid dehydrogenase (SDH):isomerase activity. The test compounds were incubated for varying intervals (0-3 hrs) with aromatase prior to the addition of 34 pmol 1-[3H]-androstenedione to start a 30 min aromatase activity assay. When 10-(2-propynyl)-19-norandrost-5-ene-3β,17β-diol was tested in vitro by this procedure the following results were observed: […]"}, "[1]": {"system": "Aromatase Activity of JAr Tumor Xenografts in Nude Mice", "test": "In vivo inhibition of aromatase activity of JAr tumor xenografts in nude mice", "design": "species or system human (JAr tumor cells) in athymic nude mice", "conditions": "vehicle PEG-200, 6 hr post-treatment", "experimental": "In evaluating the inhibition of aromatase activity, the compounds of the present invention were tested according to the folowing procedure adapted from Johnston et al., J Steroid Biochem., Vol. 20, No. 6A, 1221 (1984) and Johnston, Steroids, Vol. 50, No. 1-3, 105 (1987). Athymic nude mice were subcutaneously injected with 1.5×10^6 human choriocarcinoma trophoblast (JAr) cells, which develop tumor masses of about 1 g in 10 days. Tumor aromatase activity was determined in vitro by measuring the ^3 H2 O resulting from the stereospecific release of 1-β ^3 H from 1-[^3 H]-androstenedione. Cytosol (800×g) from 35 mg of tumor was the source for both aromatase and 3β-steroid dehydrogenase (SDH):isomerase activity. The test compounds were incubated for varying intervals (0-3 hrs) with aromatase prior to the addition of 34 pmol 1-[3H]-androstenedione to start a 30 min aromatase activity assay. When 10-(2-propynyl)-19-norandrost-5-ene-3β,17β-diol was tested in vitro by this procedure the following results were observed:\nThe compound 10-(2-propynyl)-19-norandrost-5-ene-3β,17β-diol was also evaluated in vivo by treating nude mice with trophoblast tumors. At 6 hr post-treatment intervals, tumor aromatase activity was determined in an in vitro assay as discussed above. The vehicle for oral dosing was PEG-200."}},
  "note": "Read-outs that look alike come from different tables or passages of the source.",
  "data": [
    {"smiles": "C#CC[C@]12CC[C@H](O)CC1=CC[C@@H]1[C@@H]2CC[C@]2(C)[C@@H](O)CC[C@@H]12", "note": "[10-(2-propynyl)-19-norandrost-5-ene-3β,17β-diol]", "values": [
      {"measurement": "inhibition at 5 µM", "setting": "JAr Tumor Aromatase; preincubation time 0 hr", "value": 15.1, "unit": "%"},
      {"measurement": "inhibition at 5 µM", "setting": "JAr Tumor Aromatase; preincubation time 1 hr", "value": 0, "unit": "%"},
      {"measurement": "inhibition at 5 µM", "setting": "JAr Tumor Aromatase; preincubation time 2 hr", "value": 66.9, "unit": "%"},
      {"measurement": "inhibition at 5 µM", "setting": "JAr Tumor Aromatase; preincubation time 3 hr", "value": 71.9, "unit": "%"},
      {"measurement": "inhibition at 25 µM", "setting": "JAr Tumor Aromatase; preincubation time 0 hr", "value": 33.4, "unit": "%"},
      {"measurement": "inhibition at 25 µM", "setting": "JAr Tumor Aromatase; preincubation time 1 hr", "value": 0, "unit": "%"},
      {"measurement": "inhibition at 25 µM", "setting": "JAr Tumor Aromatase; preincubation time 2 hr", "value": 86.5, "unit": "%"},
      {"measurement": "inhibition at 25 µM", "setting": "JAr Tumor Aromatase; preincubation time 3 hr", "value": 84.9, "unit": "%"},
      {"measurement": "type of aromatase inhibition (biphase response)", "setting": "JAr Tumor Aromatase; preincubation 0-3 hr, after enzymatic processing to a more reactive component", "value": "time-dependent inhibition of aromatase"},
      {"measurement": "Relative % Inhibition 6 hr Post-treatment", "setting": "[1]; 7 mg/kg oral", "value": "5.9 ± 3.0", "unit": "%"},
      {"measurement": "Relative % Inhibition 6 hr Post-treatment", "setting": "[1]; 10 mg/kg oral", "value": "27.5 ± 1.5", "unit": "%"},
      {"measurement": "Relative % Inhibition 6 hr Post-treatment", "setting": "[1]; 30 mg/kg oral", "value": "53.4 ± 7.8", "unit": "%"}
    ]}
  ]
}
